# Results: US20150133297A1, “NEW ANTIFUNGAL COMPOSITIONS” (DSM IP ASSETS B.V., priority 2012, published 2015)
# Test system: Botrytis cinerea
# Assay: Treatment of strawberries (Example 5): wounded, inoculated, dipped in antifungal composition
# Assay type: in vivo
# Conditions: 500 ppm natamycin, 600 ppm fenpropidin or both
# Procedure: Twelve fresh, organic strawberries were used per treatment. Each strawberry was wounded with a 0.5 mm long cut and each wound was inoculated with 10 μl of a Botrytis cinerea suspension containing 1×10^5 of spores/ml. […] A composition without natamycin or fenpropidin was used as control. […] The treated strawberries were incubated in a closed box in the dark at 20° C. for 9 days. During incubation, mould growth on the strawberries was assessed in a twofold manner: […] The expected antifungal activity (E in %) of the combined antifungal composition comprising both active ingredients was calculated according to the Colby equation (Colby, 1967): […] wherein X and Y are the observed antifungal activities (in %) of the individual active ingredients X and Y, respectively.
compound,measurement,setting,value
"C[C@@H]1C/C=C/C=C/C=C/C=C/[C@H](O[C@@H]2O[C@H](C)[C@@H](O)[C@H](N)[C@@H]2O)C[C@@H]2O[C@](O)(C[C@@H](O)C[C@H]3O[C@@H]3/C=C/C(=O)O1)C[C@H](O)[C@H]2C(=O)O [Natamycin, natamycin]",Number of moulded strawberries/total number of 12 strawberries,"Day 5, 20° C.",11
same,Number of moulded strawberries/total number of 12 strawberries,"Day 6, 20° C.",12
